{"source": "paper PMC11631053", "about": "“A receptor-based assay to study the sweet and bitter tastes of sweeteners and binary sweet blends: the SWEET project” (Chemical Senses, 2024)", "molecules": {"B1": {"name": "thaumatin (protein)", "chain": "ATFEIVNRCSYTVWAAASKGDAALDAGGRQLNSGESWTINVEPGTNGGKIWARTDCYFDDSGSGICKTGDCGGLLRCKRFGRPPTTLAEFSLNQYGKDYIDISNIKGFNVPMDFSPTTRGCRGVRCAADIVGQCPAKLKAPGGGCNDACTVFQTSEYCCTTGKCGPTEYSRFFKRLCPDAFSYVLDKPTTVTCPGSSNYRVTFCPTA", "modifications": "8 disulfide bonds; natural (E957) thaumatin is a mixture of mainly thaumatin I and II"}}, "key": {"[1]": {"settings": "sucrose = 1; ref Schiffman and Gatlin (1993); cited from earlier work"}, "[2]": {"biological_target": "T1, TAS1R2/TAS1R3 (Homo sapiens, UniProt Q7RTX0+Q8TE23)", "T1 sequence (Q8TE23 20-839)": "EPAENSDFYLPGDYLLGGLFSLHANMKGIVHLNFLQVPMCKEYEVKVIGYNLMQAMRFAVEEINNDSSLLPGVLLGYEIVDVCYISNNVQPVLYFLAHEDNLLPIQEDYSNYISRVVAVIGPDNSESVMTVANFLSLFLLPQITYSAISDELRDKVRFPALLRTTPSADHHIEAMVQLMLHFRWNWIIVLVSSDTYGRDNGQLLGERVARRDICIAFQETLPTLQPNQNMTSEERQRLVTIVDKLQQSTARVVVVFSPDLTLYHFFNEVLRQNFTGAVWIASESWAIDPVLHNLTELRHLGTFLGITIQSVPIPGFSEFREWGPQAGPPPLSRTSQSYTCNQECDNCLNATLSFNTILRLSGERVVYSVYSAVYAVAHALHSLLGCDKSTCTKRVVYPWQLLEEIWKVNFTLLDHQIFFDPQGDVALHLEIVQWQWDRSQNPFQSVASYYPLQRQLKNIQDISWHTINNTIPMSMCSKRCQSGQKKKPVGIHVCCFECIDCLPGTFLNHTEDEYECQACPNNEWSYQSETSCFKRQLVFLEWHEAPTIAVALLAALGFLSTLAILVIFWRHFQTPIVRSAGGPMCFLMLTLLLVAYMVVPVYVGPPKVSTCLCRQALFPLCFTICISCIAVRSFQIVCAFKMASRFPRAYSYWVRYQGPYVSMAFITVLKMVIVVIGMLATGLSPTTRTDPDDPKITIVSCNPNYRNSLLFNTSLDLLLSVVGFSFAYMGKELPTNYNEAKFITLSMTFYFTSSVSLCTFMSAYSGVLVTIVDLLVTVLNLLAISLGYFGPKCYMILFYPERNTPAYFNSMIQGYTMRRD", "T1 sequence (Q7RTX0 21-852)": "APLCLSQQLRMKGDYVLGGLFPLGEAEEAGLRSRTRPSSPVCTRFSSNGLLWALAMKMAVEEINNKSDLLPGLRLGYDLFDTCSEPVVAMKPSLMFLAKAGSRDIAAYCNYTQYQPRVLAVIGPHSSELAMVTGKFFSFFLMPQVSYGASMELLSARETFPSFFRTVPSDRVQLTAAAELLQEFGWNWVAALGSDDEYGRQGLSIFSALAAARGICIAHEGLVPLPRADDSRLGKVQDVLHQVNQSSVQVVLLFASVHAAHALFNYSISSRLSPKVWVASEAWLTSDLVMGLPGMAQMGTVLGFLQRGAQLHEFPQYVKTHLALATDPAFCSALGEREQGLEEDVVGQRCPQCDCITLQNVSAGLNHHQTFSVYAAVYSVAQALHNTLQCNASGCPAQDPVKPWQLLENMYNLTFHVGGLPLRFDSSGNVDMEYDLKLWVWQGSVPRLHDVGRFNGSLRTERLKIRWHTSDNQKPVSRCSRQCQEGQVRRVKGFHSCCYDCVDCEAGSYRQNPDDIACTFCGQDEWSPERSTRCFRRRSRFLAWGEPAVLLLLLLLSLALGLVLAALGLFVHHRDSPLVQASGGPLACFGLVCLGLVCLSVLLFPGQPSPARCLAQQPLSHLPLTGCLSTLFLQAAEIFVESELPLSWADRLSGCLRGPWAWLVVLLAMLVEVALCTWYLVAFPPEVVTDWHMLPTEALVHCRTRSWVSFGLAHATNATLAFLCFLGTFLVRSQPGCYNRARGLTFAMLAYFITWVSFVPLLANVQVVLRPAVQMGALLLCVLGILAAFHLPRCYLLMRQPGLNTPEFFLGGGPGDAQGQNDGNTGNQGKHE", "test": "Calcium mobilization assay, HEK293T-Gα16gust44 cells expressing the sweet taste receptor", "settings": "sweet compound alone", "description": "Different concentration ranges were tested depending on the injected sweet compound. […] All of the concentration-receptor combinations were measured in triplicate, and each experiment was repeated at least 3 times. The Ca^2+ change was expressed as a fractional change in fluorescent light intensity: ΔF/F = (F − F0)/F0, where F was the fluorescent light intensity at each point, and F0 was the value of fluorescent light emitted prior to stimulus application. To calculate dose–response relationships, the changes in fluorescence upon stimulus application were averaged, mock-subtracted and baseline-corrected. The resulting obtained dose–response data were adjusted by using a 4-parameter logistic equation."}, "[3]": {"system": "TAS2R1", "settings": "ref Meyerhof et al. 2010; cited from earlier work"}, "[4]": {"system": "TAS2R8", "settings": "ref Meyerhof et al. 2010; cited from earlier work"}}, "note": "Marks after values point to notes of the source that are not given here.", "data": [{"molecule": "OC[C@H]1O[C@@](CO)(O[C@H]2O[C@H](CO)[C@@H](O)[C@H](O)[C@H]2O)[C@@H](O)[C@@H]1O", "note": "[Sucrose, reference compound]", "values": [{"measurement": "Sweetness potency", "setting": "[1]", "result": "1^g"}, {"measurement": "Max ΔF/F0", "setting": "[2]; maximal signal amplitude", "result": "0.10 ± 0.03"}]}, {"molecule": "O=S(=O)(O)NC1CCCCC1", "note": "[cyclamate]", "values": [{"measurement": "concentration at which activation of TAS2R1 occurs", "setting": "[3]", "result": "approximately 30 mM"}, {"measurement": "concentration at which activation of TAS2R8 occurs", "setting": "[4]", "result": "approximately 30 mM"}]}, {"molecule": "B1", "values": [{"measurement": "EC50", "setting": "[2]; read-out: EC50 value", "result": "12 ± 2", "unit": "µM"}]}]}
